Assay results published in the supplement of paper PMC10307832.

Assays:
Assay in all cases: relative viability (nuclei count vs DMSO), 5 days (fraction); higher = more cells survive
[1] = compound: COc1cc2nc(N3CCCN(C)CC3)nc(NC3CCN(Cc4ccccc4)CC3)c2cc1OC + CC1(C)CCC(c2ccc(Cl)cc2)=C(CN2CCN(c3ccc(C(=O)NS(=O)(=O)c4ccc(N[C@H](CCN5CCOCC5)CSc5ccccc5)c(S(=O)(=O)C(F)(F)F)c4)cc3)CC2)C1 [Navitoclax] (partner 0.5 µM)
Outline: (§1)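 Values are medians from duplicate plates. Each reflects relative viability, defined as the nuclei count of treated wells over that of vehicle wells. Lung cancer cell lines in 1536-well plates were pin-tool dosed one day after seeding with one drug alone or with a fixed anchor-drug dose plus five library-drug doses (not always all listed) in √10 steps, then fixed, stained and imaged at 4× after 5 days.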

[2] = compound: COc1cc2nc(N3CCCN(C)CC3)nc(NC3CCN(Cc4ccccc4)CC3)c2cc1OC + CS(=O)(=O)CCNCc1ccc(-c2ccc3ncnc(Nc4ccc(OCc5cccc(F)c5)c(Cl)c4)c3c2)o1 [Lapatinib] (partner 2 µM)
Outline: as §1

AZD6482 + Luminespib = compound: Cc1cc([C@@H](C)Nc2ccccc2C(=O)O)c2nc(N3CCOCC3)cc(=O)n2c1 [AZD6482] + CCNC(=O)c1noc(-c2cc(C(C)C)c(O)cc2O)c1-c1ccc(CN2CCOCC2)cc1 [Luminespib] (partner 0.01 µM)
Outline: as §1

AZD6482 + Dasatinib = compound: Cc1cc([C@@H](C)Nc2ccccc2C(=O)O)c2nc(N3CCOCC3)cc(=O)n2c1 [AZD6482] + Cc1nc(Nc2ncc(C(=O)Nc3c(C)cccc3Cl)s2)cc(N2CCN(CCO)CC2)n1 [Dasatinib] (partner 0.075 µM)
Outline: as §1

Cell Line	relative viability ([1]; first compound 0.2 µM)	relative viability ([1]; first compound 0.6325 µM)	relative viability ([1]; first compound 2 µM)	relative viability ([1]; first compound 6.325 µM)	relative viability ([2]; first compound 0.2 µM)	relative viability ([2]; first compound 0.6325 µM)	relative viability ([2]; first compound 2 µM)	relative viability ([2]; first compound 6.325 µM)	relative viability (AZD6482 + Luminespib; first compound 0.08 µM)	relative viability (AZD6482 + Luminespib; first compound 0.253 µM)	relative viability (AZD6482 + Luminespib; first compound 0.8 µM)	relative viability (AZD6482 + Luminespib; first compound 2.53 µM)	relative viability (AZD6482 + Luminespib; first compound 8 µM)	relative viability (AZD6482 + Dasatinib; first compound 0.08 µM)	relative viability (AZD6482 + Dasatinib; first compound 0.253 µM)	relative viability (AZD6482 + Dasatinib; first compound 0.8 µM)	relative viability (AZD6482 + Dasatinib; first compound 2.53 µM)	relative viability (AZD6482 + Dasatinib; first compound 8 µM)
NCI-H647	1.07	1.18	1.32	0.964	1.16	0.967	1.11	0.417	0.167	0.121	0.147	0.193	0.146	0.133	0.152	0.153	0.0999	0.096
NCI-H1792	0.665	0.639	0.66	0.629	0.953	0.893	0.94	1.02	0.373	0.392	0.458	0.19	0.353	0.769	0.703	0.862	0.569	0.515
SK-LU-1	1.06	1	1.2	0.461	0.818	0.754	1	0.839		0.189	0.203	0.145	0.168		0.165	0.18	0.152	0.165
NCI-H1650	1.25	1.07	1.48	1.07	0.75	0.813	0.915	0.579	0.182	0.189	0.204	0.186	0.194	0.224	0.278	0.316	0.234	0.318
NCI-H2009	1.22	1.17	1.2	1.15	0.871	0.888	1.08	0.901	1.04	1.11	1.08	0.771	0.963	0.2	0.232	0.218	0.165	0.183
LOU-NH91	0.717	0.688	0.578	0.742	0.803	0.812	0.731	0.693	0.326	0.293	0.343	0.27	0.335	0.394	0.486	0.577	0.406	0.376
NCI-H2405	0.829	0.826	0.84	0.728	1.08	1.08	1.2	0.885	0.367		0.612	0.261	0.385	0.161		0.232	0.206	0.191
LCLC-97TM1	0.37		0.34	0.444	0.875		1.17	0.836	0.77	0.803	0.66	0.327	0.282	0.87	0.711	0.869	0.611	0.486
NCI-H596	1.03	0.851	0.949	0.821	1.1	0.563	1.24	0.837	0.92	0.815	0.848	0.812	0.801	0.7	0.586	0.601	0.514	0.642
